Measurements published in publication PMC5096949 (Toxicology letters, 2016).
Entries after “also recorded” stand apart in the source; their conditions may differ. Blank lines part the entries; values can stand above or below the compound they belong to.

Legend:
[1] = molecular target: T1, Rat Brain Microsomes (FAAH) (Rattus norvegicus, UniProt P97612); assay: FAAH inhibition in brain microsomes, OMP hydrolysis
T1 sequence (P97612 1-579): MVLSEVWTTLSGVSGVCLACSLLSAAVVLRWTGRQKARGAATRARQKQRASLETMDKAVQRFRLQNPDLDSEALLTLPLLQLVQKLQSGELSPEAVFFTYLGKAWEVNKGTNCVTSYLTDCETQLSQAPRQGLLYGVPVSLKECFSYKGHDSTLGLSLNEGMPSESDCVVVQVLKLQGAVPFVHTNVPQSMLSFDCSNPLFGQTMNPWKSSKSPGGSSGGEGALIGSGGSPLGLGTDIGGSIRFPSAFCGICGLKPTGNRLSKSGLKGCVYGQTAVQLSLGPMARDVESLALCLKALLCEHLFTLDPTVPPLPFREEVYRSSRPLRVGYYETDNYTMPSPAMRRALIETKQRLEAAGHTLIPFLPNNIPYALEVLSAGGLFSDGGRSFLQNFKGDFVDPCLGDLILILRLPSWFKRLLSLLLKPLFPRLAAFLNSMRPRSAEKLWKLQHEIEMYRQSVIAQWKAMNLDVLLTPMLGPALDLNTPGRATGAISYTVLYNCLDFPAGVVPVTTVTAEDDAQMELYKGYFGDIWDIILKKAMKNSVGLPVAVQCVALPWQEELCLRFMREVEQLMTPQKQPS

[2] = molecular target: T2, Human Recombinant hCE1 (carboxylesterase 1) (Homo sapiens, UniProt P23141); assay: Esterase inhibition, fluorimetric assay with CMNA substrate; type: biochemical
T2 sequence (P23141 18-567): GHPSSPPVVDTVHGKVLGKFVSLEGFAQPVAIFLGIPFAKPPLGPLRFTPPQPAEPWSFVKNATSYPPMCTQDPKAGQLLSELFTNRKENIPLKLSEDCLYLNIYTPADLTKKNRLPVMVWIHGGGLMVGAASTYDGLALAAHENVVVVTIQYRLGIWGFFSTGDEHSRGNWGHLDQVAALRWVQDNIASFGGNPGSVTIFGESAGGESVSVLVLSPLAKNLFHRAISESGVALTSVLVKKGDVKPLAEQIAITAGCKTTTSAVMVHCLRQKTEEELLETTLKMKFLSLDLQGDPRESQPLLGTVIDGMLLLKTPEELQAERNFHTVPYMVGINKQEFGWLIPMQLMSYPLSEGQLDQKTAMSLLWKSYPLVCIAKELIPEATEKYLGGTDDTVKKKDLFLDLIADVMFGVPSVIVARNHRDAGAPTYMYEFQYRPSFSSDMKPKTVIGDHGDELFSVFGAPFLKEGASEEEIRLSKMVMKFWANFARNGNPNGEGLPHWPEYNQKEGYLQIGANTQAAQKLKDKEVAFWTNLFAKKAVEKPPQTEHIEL

[3] = molecular target: T3, Human Recombinant FAAH (fatty acid amide hydrolase) (Homo sapiens, UniProt O00519); assay: FAAH inhibition, fluorimetric assay with OMP substrate, recombinant enzyme; type: biochemical; settings: for time-dependence of FAAH inhibition: pre-incubation of enzyme with inhibitor up to 1 h; for activity / potency towards FAAH (in words): recombinant FAAH
T3 sequence (O00519 1-579): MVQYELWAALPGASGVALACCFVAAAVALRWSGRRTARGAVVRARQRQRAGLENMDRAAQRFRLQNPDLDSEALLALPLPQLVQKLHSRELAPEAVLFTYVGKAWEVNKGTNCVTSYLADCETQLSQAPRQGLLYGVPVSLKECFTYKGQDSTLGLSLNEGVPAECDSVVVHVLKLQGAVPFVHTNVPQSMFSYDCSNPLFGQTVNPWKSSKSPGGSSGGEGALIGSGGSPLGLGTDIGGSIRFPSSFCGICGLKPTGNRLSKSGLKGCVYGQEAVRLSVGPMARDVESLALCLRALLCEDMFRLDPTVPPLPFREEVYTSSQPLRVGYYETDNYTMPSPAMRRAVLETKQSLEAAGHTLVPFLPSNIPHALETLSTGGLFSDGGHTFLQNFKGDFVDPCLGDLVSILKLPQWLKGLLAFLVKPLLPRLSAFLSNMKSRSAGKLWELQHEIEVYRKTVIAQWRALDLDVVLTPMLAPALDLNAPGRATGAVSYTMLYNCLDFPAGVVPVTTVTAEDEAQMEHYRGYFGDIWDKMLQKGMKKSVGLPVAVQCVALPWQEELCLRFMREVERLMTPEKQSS

[4] = molecular target: T4, Human Recombinant hCE2 (carboxylesterase 2) (Homo sapiens, UniProt O00748); assay: Esterase inhibition, fluorimetric assay with CMNA substrate; type: biochemical
T4 sequence (O00748 27-559): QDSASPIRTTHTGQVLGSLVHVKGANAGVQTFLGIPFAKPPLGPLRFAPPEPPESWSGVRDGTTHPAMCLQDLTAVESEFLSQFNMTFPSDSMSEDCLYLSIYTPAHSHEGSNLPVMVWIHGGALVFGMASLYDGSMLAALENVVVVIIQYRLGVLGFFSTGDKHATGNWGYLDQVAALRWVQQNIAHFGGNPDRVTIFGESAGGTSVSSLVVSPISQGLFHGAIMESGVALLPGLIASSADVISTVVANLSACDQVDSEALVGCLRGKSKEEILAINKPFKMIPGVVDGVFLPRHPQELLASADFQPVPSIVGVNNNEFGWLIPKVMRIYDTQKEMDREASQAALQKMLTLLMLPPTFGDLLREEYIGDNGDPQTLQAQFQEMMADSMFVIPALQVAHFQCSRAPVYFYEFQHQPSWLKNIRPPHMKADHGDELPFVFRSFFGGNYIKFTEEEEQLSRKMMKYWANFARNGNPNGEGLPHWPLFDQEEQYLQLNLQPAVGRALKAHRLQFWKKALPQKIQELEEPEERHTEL

[5] = molecular target: T5, Mouse Brain Microsomes (FAAH) (Mus musculus, UniProt O08914); assay: FAAH inhibition in brain microsomes, OMP hydrolysis
T5 sequence (O08914 1-579): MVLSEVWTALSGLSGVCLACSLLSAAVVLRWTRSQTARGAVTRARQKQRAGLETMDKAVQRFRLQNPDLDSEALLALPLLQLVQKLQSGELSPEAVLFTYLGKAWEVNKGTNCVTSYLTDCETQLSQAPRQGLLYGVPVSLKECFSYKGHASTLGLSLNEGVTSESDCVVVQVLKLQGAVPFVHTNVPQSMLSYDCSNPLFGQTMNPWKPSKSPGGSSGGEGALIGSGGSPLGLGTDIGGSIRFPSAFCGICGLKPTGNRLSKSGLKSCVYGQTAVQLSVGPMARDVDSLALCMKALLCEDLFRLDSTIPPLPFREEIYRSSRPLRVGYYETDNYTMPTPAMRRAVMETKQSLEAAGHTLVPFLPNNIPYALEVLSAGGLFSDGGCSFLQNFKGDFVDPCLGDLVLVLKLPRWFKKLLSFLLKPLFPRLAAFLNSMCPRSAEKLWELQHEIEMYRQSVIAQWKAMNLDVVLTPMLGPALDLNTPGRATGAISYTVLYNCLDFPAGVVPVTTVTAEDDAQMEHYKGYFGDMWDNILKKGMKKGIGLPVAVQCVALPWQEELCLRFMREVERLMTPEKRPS

[6] = molecular target: T6, Human Recombinant AADAC (arylacetamide deacetylase) (Homo sapiens, UniProt P22760); assay: Esterase inhibition, fluorimetric assay with CMNA substrate; type: biochemical
T6 sequence (P22760 1-399): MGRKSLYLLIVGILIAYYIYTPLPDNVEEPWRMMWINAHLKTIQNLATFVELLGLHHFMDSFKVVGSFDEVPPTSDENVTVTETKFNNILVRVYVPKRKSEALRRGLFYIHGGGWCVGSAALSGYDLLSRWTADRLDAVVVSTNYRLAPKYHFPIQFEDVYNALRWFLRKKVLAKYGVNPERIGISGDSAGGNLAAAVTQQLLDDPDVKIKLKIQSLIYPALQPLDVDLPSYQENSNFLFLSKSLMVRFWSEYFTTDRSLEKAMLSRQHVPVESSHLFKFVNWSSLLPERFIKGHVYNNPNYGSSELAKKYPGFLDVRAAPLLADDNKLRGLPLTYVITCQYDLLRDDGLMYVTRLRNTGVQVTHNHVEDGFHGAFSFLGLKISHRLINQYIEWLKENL

[7] = test system: PPARγ, C/EBPα and FABP4 mRNA expression; assay: RT-PCR of adipocyte marker genes in 3T3-L1 cells; type: cell-based, Murine; settings: for effect on AEA-induced adipocyte marker expression: 3T3-L1, 10 μM compound, co-treatment with AEA 10 μM; for PPARγ, C/EBPα and FABP4 mRNA expression: 3T3-L1, 1, 10, 50 μM for 7 days, n = 3
[8] = human exposure; ref Calafat et al., 2010; Tefre de Renzy-Martin et al., 2014; cited from earlier work
[9] = test system: 3T3-L1 cells; assay: 3T3-L1 adipocyte differentiation, Oil Red O staining of lipid accumulation; type: cell-based, Murine; settings: for effect on AEA-mediated adipocyte differentiation (Oil Red O): 10 μM compound, co-treatment with AEA 10 μM, 7 days; for adipocyte differentiation / lipid accumulation (Oil Red O staining): 1, 10, 50 μM for 7 days
[10] = as inhibitor concentration increases

SMILES: CCCCOC(=O)c1ccc(O)cc1 [Butylparaben, butylparaben]
IC50 [1]: 1100 nM | IC50 [2]: > 10000 nM | time-dependence of FAAH inhibition [3]: independent on incubation time | IC50 [4]: > 10000 nM | IC50 [5]: 1600 nM | IC50 [6]: > 10000 nM | effect on AEA-induced adipocyte marker expression ([7]; 7 days): not significantly changed | PPARγ, C/EBPα and FABP4 mRNA expression [7]: enhanced PPARγ, C/EBPα and FABP4 mRNA expression | urinary concentrations [8]: 0.1 to 0.5 µM | effect on AEA-mediated adipocyte differentiation (Oil Red O) [9]: do not synergize to increase adipocyte differentiation | adipocyte differentiation / lipid accumulation (Oil Red O staining) [9]: dose-dependently enhanced 3T3-L1 adipocyte differentiation

IC50 [1]: 230 nM | IC50 [2]: > 10000 nM | mechanism of FAAH inhibition [3]: mixed type mechanism | Ki ([3]; Ki, linear mixed-type model of inhibition): 52 ± 14 nM | potency relative to URB597 (less potent) ([3]; after a 5 min incubation): 3 fold | change in KM app [3, 10]: 18 to 98 µM | change in Vmax app [3, 10]: 5.5 RFU/s to 2.0 RFU/s | α value ([3]; linear mixed-type model of inhibition): 9.7 ± 6.6 | time-dependence of FAAH inhibition [3]: independent on incubation time | Ki ([3]; upper limit of relative Ki, at saturating substrate, mixed-type interaction): ≤ 1000 nM | IC50 [4]: > 10000 nM | IC50 [5]: 210 nM | IC50 [6]: > 10000 nM
SMILES: O=C(OCc1ccccc1)c1ccc(O)cc1 [Benzylparaben, benzylparaben]
effect on AEA-induced adipocyte marker expression ([7]; 7 days): not significantly changed | PPARγ, C/EBPα and FABP4 mRNA expression [7]: enhanced PPARγ, C/EBPα and FABP4 mRNA expression | effect on AEA-mediated adipocyte differentiation (Oil Red O) [9]: do not synergize to increase adipocyte differentiation | adipocyte differentiation / lipid accumulation (Oil Red O staining) [9]: dose-dependently enhanced 3T3-L1 adipocyte differentiation

activity / potency towards FAAH (in words) [3]: completely removed potency
SMILES: COc1ccc(C(=O)OCc2ccccc2)cc1 [Compound 2]

SMILES: NC(=O)c1cccc(-c2cccc(OC(=O)NC3CCCCC3)c2)c1 [URB597, 3′-carbamoyl-[1,1′-biphenyl]-3-yl cyclohexylcarbamate, reference compound]
IC50 [2]: 2200 nM | IC50 [4]: 730 nM | OMP hydrolysis remaining ([5]; 50 nM, mouse brain microsomes): less than 20% | inhibition at 0.05 µM ([5]; read-out: inhibition of activity (OMP hydrolysis)): > 80% | IC50 [6]: > 10000 nM | effect on AEA-induced adipocyte marker expression ([7]; 7 days): not significantly changed | PPARγ, C/EBPα and FABP4 mRNA expression [7]: increased PPARγ, C/EBPα and FABP4 mRNA expression | effect on AEA-mediated adipocyte differentiation (Oil Red O) [9]: do not synergize to increase adipocyte differentiation | adipocyte differentiation / lipid accumulation (Oil Red O staining) [9]: only exposure to 10 μM of URB597 resulted in increased lipid accumulation; also recorded: increased differentiation and only at a concentration of 10 μM, not at 50 μM

activity / potency towards FAAH (in words) [3]: no change in potency
SMILES: CCCCCCCOC(=O)c1ccc(O)cc1 [Compound 6, heptylparaben]

activity / potency towards FAAH (in words) [3]: completely removed potency
SMILES: O=C(OCc1ccccc1)c1ccccc1 [Compound 3]

activity / potency towards FAAH (in words) [3]: completely removed potency
SMILES: O=C(OCc1ccccc1)c1ccc([N+](=O)[O-])cc1 [Compound 4]

activity / potency towards FAAH (in words) [3]: completely inactive
SMILES: O=C(O)c1ccc(O)cc1 [4-HO-benzoate, 4-hydroxybenzoic acid]

SMILES: CCCCC/C=C\C/C=C\C/C=C\C/C=C\CCCC(=O)NCCO [AEA, arachidonoyl ethanolamide, reference compound]
expression of markers of differentiation ([7]; 3T3-L1, AEA 10 μM, 7 days): increased expression of several markers of differentiation (PPARγ and C/EBPα)

SMILES: O=C(Nc1ccccc1)N1CCN(Cc2ccc3ccccc3n2)CC1 [PF622, N-phenyl-4-(quinolin-2-ylmethyl)piperazine-1-carboxamide]
effect on AEA-mediated adipocyte differentiation (Oil Red O) [9]: do not synergize to increase adipocyte differentiation | adipocyte differentiation / lipid accumulation (Oil Red O staining) [9]: had no effects at any of the doses tested

activity / potency towards FAAH (in words) [3]: completely inactive
SMILES: COC(=O)c1ccc(O)cc1 [Methylparaben, methylparaben]

decrease in potency relative to benzylparaben ([3]; FAAH IC50, 5 min pre-incubation): 2 fold
SMILES: O=C(OCC1CCCCC1)c1ccc(O)cc1 [Compound 5]
